Results taken from patent publication US4940705A, “N-substituted derivatives of 1-desoxynojirimycin and 1-desoxymannonojirimycin and pharmaceutical use” (Bayer Aktiengesellschaft, priority 1987, dated 1990).
In brackets after ≈: the same amount, converted by molar mass.

What was measured:
Visna virus = Visna virus test: inhibition of virus-induced cytopathic effect / virus multiplication in infected cell cultures; assay type: cell-based; settings: Visna-maedi virus, 168 h, sheep fibroblast cells, 7 days at 37° C., Table 1, read-out: 2 MIC (minimum concentration at which an inhibition of virus multiplication was still observed)
Method: In cell cultures which are infected with Visna virus, pronounced virus-induced, cytopathic effects appear 5 to 10 days after infection. By treatment of the infected cell cultures with the compounds according to the invention, the appearance of these cytopathic effects could be prevented.
(§1) The Visna virus test was carried out by the method of O. Narayan et al., Journal of Infectious Diseases 135, 5, 1977, 800-806. For this, the compounds according to the invention were diluted to non-cytotoxic concentrations in culture medium in 96-well microtiter plates. Subsequently, sheep fibroblast cells (5×10^4 cells per well) in production medium were added to each well. Each well then contained 50 μl of a Visna virus solution having a titre of about 2.5×10^4TCID50 (TCID=tissue culture infectious dose). This virus dose corresponds to an MOI (multiplicity of infection) of about 0.05.
The infected and treated cells and the controlled cells were incubated for 7 days at 37° C. and 5% CO2.
On appearance of the virus-induced cytopathogenic effect in the untreated virus control, the cultures were fixed using formalin and subsequently stained with a Giemsa solution.
(§2) Herein, MCC denotes cytotoxicity and MIC denotes the minimum concentration at which an inhibition of virus multiplication was still observed.

Cytotoxicity (MCC) = assay type: cell-based; settings: sheep, sheep fibroblast cells; MCC denotes cytotoxicity; Table 1
Method: as §1, §2

Row | SMILES | MIC (Visna virus) [µg/mL] | MCC (Cytotoxicity (MCC)) [µg/mL]
1 | O=C(CCN1C[C@H](O)[C@@H](O)[C@H](O)[C@H]1CO)Nc1ccc2c(c1)OCCO2 [Example 29, N-(3,4-Ethylenedioxyphenyl)-3-(1,5-didesoxy-1,5-imino-D-glucit-N-yl)propionamide] | 125 (≈ 339 µM) | > 1000
2 | O=C(CCN1C[C@H](O)[C@@H](O)[C@H](O)[C@H]1CO)Nc1ccccc1 [Example 34, N-Phenyl-3-(1,5-didesoxy-1,5-imino-D-glucit-N-yl)propionamide] | 15 (≈ 48.3 µM) | > 1000
3 | O=C(CCN1C[C@H](O)[C@@H](O)[C@H](O)[C@H]1CO)N1CCSCC1 [Example 100, 3-(1,5-Didesoxy-1,5-imino-D-glucit-N-yl)propionyl-1-thiomorpholide] | 500 (≈ 1560 µM) | > 1000
4 | C=CCOc1ccc(NC(=O)CCN2C[C@H](O)[C@@H](O)[C@H](O)[C@H]2CO)cc1 [Example 10, N-(4-Allyloxyphenyl)-3-(1,5-didesoxy-1,5-imino-D-glucit-N-yl)propionamide] | 30 (≈ 81.9 µM) | > 1000
5 | CC(C)(C)c1ccc(NC(=O)CCN2C[C@H](O)[C@@H](O)[C@H](O)[C@H]2CO)cc1 [Example 7, N-(4-Tert.-butylphenyl)-3-(1,5-didesoxy-1,5-imino-D-glucit-N-yl)propionamid] | 500 (≈ 1360 µM) | > 1000
6 | Cc1ccc(N2CCN(C(=O)CCN3C[C@H](O)[C@@H](O)[C@H](O)[C@H]3CO)CC2)cc1 [Example 87, 3-(1,5-Didesoxy-1,5-imino-D-glucit-N-yl)-propionyl-1-(4-tolyl)piperazine] | 250 (≈ 635 µM) | > 1000
7 | O=C(CCN1C[C@@H](O)[C@@H](O)[C@H](O)[C@H]1CO)Nc1ccc(F)c(F)c1 [Example 60, N-(3,4-Difluorophenyl)-3-(1,5-didesoxy-1,5-imino-D-mannit-n-yl)propionamide] | 500 (≈ 1440 µM) | > 1000
8 | CC(C)c1ccccc1NC(=O)CCN1C[C@@H](O)[C@@H](O)[C@H](O)[C@H]1CO [Example 55, N-(2-Isopropylphenyl)-3-(1,5-didesoxy-1,5-imino-D-mannit-N-yl)propionamide] | 250 (≈ 709 µM) | 1000
9 | O=C(CCN1C[C@H](O)[C@@H](O)[C@H](O)[C@H]1CO)Nc1ccc(C2CCCCC2)cc1 [Example 28, N-(4-Cyclohexylphenyl)-3-(1,5-didesoxy-1,5-imino-D-glucit-N-yl)propionamide] | 500 (≈ 1270 µM) | > 1000
10 | O=C(CCN1C[C@H](O)[C@@H](O)[C@H](O)[C@H]1CO)NCc1ccc(C(F)(F)F)cc1 [Example 89, N-(4-Trifluoromethylbenzyl)-3-(1,5-didesoxy-1,5-imino-D-glucit-N-yl)propionamide] | 500 (≈ 1270 µM) | 1000
11 | CC(C)c1ccccc1NC(=O)CCN1C[C@H](O)[C@@H](O)[C@H](O)[C@H]1CO [Example 14, N-(2-Isopropylphenyl)-3-(1,5-didesoxy-1,5-imino-D-glucit-N-yl)propionamide] | 125 (≈ 355 µM) | > 1000
12 | O=C(CCN1C[C@H](O)[C@@H](O)[C@H](O)[C@H]1CO)N1CCN(c2ccccc2[N+](=O)[O-])CC1 [Example 94, 3-(1,5-Didesoxy-1,5-imino-D-glucit-N-yl)propionyl-1-(4-2-nitrophenyl)piperazine] | 500 (≈ 1180 µM) | > 1000
13 | O=C(CCN1C[C@H](O)[C@@H](O)[C@H](O)[C@H]1CO)N1CCN(c2ccc(F)cc2)CC1 [Example 41, 3-(1,5-Didesoxy-1,5-imino-D-glucit-N-yl)propionyl-1-(4-p-fluorophenyl)piperazine] | 125 (≈ 315 µM) | 1000
14 | O=C(CCN1C[C@H](O)[C@@H](O)[C@H](O)[C@H]1CO)N1CCN(c2ncccn2)CC1 [Example 99, 3-(1,5-Didesoxy-1,5-imino-D-glucit-N-yl)-propionyl-1-(4-[2-pyrimidyl])piperazine] | 125 (≈ 328 µM) | > 1000
15 | COc1cc(NC(=O)CCN2C[C@H](O)[C@@H](O)[C@H](O)[C@H]2CO)cc(OC)c1 [Example 25, N-(3,5-Dimethoxyphenyl)-3-(1,5-didesoxy-1,5-imino-D-glucit-N-yl)propionamide] | 250 (≈ 675 µM) | > 1000
